{"source": "patent US5162115A", "about": "“Antineoplastic solution and method for treating neoplasms” (priority 1991, dated 1992)", "key": {"[1]": {"conditions": "rat, in vivo; cited from earlier work"}, "[2]": {"conditions": "cited from earlier work"}, "[3]": {"test": "Stability of BCNU in ethanol, organic vehicles and aqueous solution", "type": "physicochemical", "conditions": "ethanol vehicle of the exemplary solution"}, "Lethal dose of BCNU": {"test": "Lethal dose of BCNU", "type": "in vivo", "conditions": "intraperitoneal BCNU in rats", "protocol": "All intratumoral injections used this 66.7 mg/ml formulation directly. This concentration is about three to four logs greater than the tumoricidal dose 50%. […] This cannot be extrapolated to man, however, because of differences in cross-species toxicity."}, "[4]": {"test": "Operative mortality following intratumoral injection", "type": "in vivo, rat (male CDF, Fischer 344)", "conditions": "following intratumoral BCNU solution injection; 4/72", "protocol": "Rats were anesthetized with ether and pentobarbital sodium (25-30 mg/kg) and placed into the stereotactic frame. The clips and bone wax were carefully removed. The BCNU solution was delivered directly into the tumor through a\nHamilton microsyringe set to the same coordinates and using the same technique as used in the initial tumor implantation. As before, the operative field was cleaned with povidone-iodine solution and the scalp was closed with clips.\nThe following paradigm was used to assess therapeutic efficacy of the intra-tumorally delivered BCNU antineoplastic solution. All animals received tumor implantation on day zero (0). Controls received no treatment, vehicle controls received a single intratumoral injection of absolute ethanol on day 7. One experimental group received a single injection of intratumoral BCN dissolved in absolute ethanol at a dose of 5 mg/kg body weight on day 7."}, "[5]": {"conditions": "cited from earlier work", "remark": "listed apart in the source"}, "[6]": {"conditions": "cited from earlier work", "remark": "listed apart in the source"}, "T9 gliosarcoma [7]": {"test_system": "T9 gliosarcoma", "test": "Survival of rats bearing intracerebral T9 gliosarcoma after intratumoral BCNU solution", "type": "in vivo, rat (male CDF, Fischer 344)", "conditions": "for % ILS (percent increase in life span): vs control"}, "tumor cells": {"test_system": "tumor cells", "test": "Tumoricidal dose 50% (TD50) comparison", "conditions": "66.7 mg/ml BCNU in absolute ethanol", "from_the_text": "Operationally, where cytotoxic, the antineoplastic agent is preferably dissolved in the organic solvent to a concentration such that when a therapeutically effective volume of the antineoplastic solution of the invention is delivered into a neoplastic mass, there results a dose of the agent solute in said mass of at least two logs greater than its tumoricidal dose 50% (TD50), that is, the concentration of agent in said mass that kills 50% of the tumor cells. This ensures that a supralethal concentration of the agent is delivered throughout at least a substantial volume of the tumor mass when the resulting antineoplastic solution is injected directly into the substance of the tumor. As the organic vehicle permeates the tumor mass it transports a therapeutically effective, neoplastically lethal concentration of the cytotoxic agent solute therewith. In this way high levels of the cytotoxic antineoplastic agent can be delivered discretely and with relative safety to the tumor mass. In another sense the water miscible organic vehicle component of the solution can be considered to increase the solubility of the agent within the tumor mass, thereby allowing therapeutically effective toxic levels of the antineoplastic agent to invest the tumor. […]"}, "T9 gliosarcoma [8]": {"test_system": "T9 gliosarcoma", "conditions": "cited from earlier work"}, "[9]": {"conditions": "delivered systemically; cited from earlier work"}, "ependymoblastoma": {"test_system": "ependymoblastoma", "conditions": "intratumoral injection(s), up to ten; suspended in 0.4% aqueous methylcellulose in most suitable formulation; cited from earlier work"}, "[10]": {"conditions": "Group 4: IT BCNU 5 mg/kg day 7 + IP BCNU 5 mg/kg day 12, n=14"}}, "note": "Entries after “also recorded” stand apart in the source; their conditions may differ. Read-outs that look alike come from different tables or passages of the source."}
{"molecule": "O=NN(CCCl)C(=O)NCCCl", "note": "[BCNU, 1,3-bis(2-chloroethyl)-1-nitrosourea]", "values": [{"measurement": "lethal dose 10%", "setting": "[1]", "result": 13.3, "unit": "mg/kg"}, {"measurement": "water solubility", "setting": "[2]", "result": "inherently low water solubility"}, {"measurement": "solubility in ethanol", "setting": "[3]", "result": "soluble to highly cytotoxic levels in ethanol"}, {"measurement": "stability and bioavailability in ethanol", "setting": "[3]", "result": "remains stable and bioavailable therein"}, {"measurement": "dose of 5 mg/kg as percentage of the LD10", "setting": "Lethal dose of BCNU", "result": "~40", "unit": "%"}, {"measurement": "Operative mortality", "setting": "[4]", "result": 5.5, "unit": "%"}, {"measurement": "half life in serum", "setting": "[5]", "result": "about 15 minutes"}, {"measurement": "stability in aqueous solution", "setting": "[6]; aqueous solution", "result": "not very stable in aqueous solution"}, {"measurement": "stability in ethanol", "setting": "[6]; ethanol", "result": "stable in ethanol"}, {"measurement": "stability in organic water miscible solvent vehicles", "setting": "[6]; organic water miscible solvent vehicles, compared with aqueous solution", "result": "far more stable in the organic water miscible solvent vehicles"}, {"measurement": "% ILS (percent increase in life span)", "setting": "T9 gliosarcoma [7]; Group 3: single IT BCNU 5 mg/kg in absolute ethanol, day 7, n=42", "result": 322, "unit": "%"}, {"measurement": "% Cures", "setting": "T9 gliosarcoma [7]; Group 3: single IT BCNU 5 mg/kg, day 7, n=42", "result": 43, "unit": "%"}, {"measurement": "MDS (median day of survival following tumor implantation)", "setting": "T9 gliosarcoma [7]; Group 3: single intratumoral (IT) injection of BCNU in absolute ethanol, 5 mg/kg, day 7, n=42", "result": 76, "unit": "days"}, {"measurement": "% Cures", "setting": "T9 gliosarcoma [7]; [10]", "result": 36, "unit": "%"}, {"measurement": "% ILS (percent increase in life span)", "setting": "T9 gliosarcoma [7]; [10]", "result": 472, "unit": "%"}, {"measurement": "MDS (median day of survival following tumor implantation)", "setting": "T9 gliosarcoma [7]; Group 4: IT BCNU in absolute ethanol 5 mg/kg day 7 + IP BCNU 5 mg/kg in 7.5% aqueous ethanol day 12, n=14", "result": 103, "unit": "days"}, {"measurement": "animals living a normal lifespan", "setting": "T9 gliosarcoma [7]; Groups 3 + 4, 600-700 days", "result": "nineteen"}, {"measurement": "animals sacrificed healthy, no observable viable T9 gliosarcoma", "setting": "T9 gliosarcoma [7]; Groups 3 + 4, days 121, 136, 307, 384", "result": "four"}, {"measurement": "% Cures", "setting": "T9 gliosarcoma [7]; Groups 3 + 4 combined, n=56", "result": 41, "unit": "%"}, {"measurement": "MDS (median day of survival following tumor implantation)", "setting": "T9 gliosarcoma [7]; Groups 3 + 4 combined, n=56", "result": 96, "unit": "days"}, {"measurement": "% ILS (percent increase in life span)", "setting": "T9 gliosarcoma [7]; Groups 3 + 4 combined, n=56", "result": 433, "unit": "%"}, {"measurement": "therapeutic benefit of adding intraperitoneal BCNU to intratumoral BCNU solution", "setting": "T9 gliosarcoma [7]; IT + IP vs IT only", "result": "did not statistically enhance the therapeutic benefit"}, {"measurement": "animals which live a normal life span", "setting": "T9 gliosarcoma [7]; intratumoral BCNU solution treated group, 600-700 days", "result": 41, "unit": "%"}, {"measurement": "animals that die, phase one", "setting": "T9 gliosarcoma [7]; intratumoral BCNU solution treated group, days 18-24", "result": 23, "unit": "%"}, {"measurement": "animals that die, second phase", "setting": "T9 gliosarcoma [7]; intratumoral BCNU solution treated group, days 25 to 166", "result": 30, "unit": "%"}, {"measurement": "animals that die, third phase", "setting": "T9 gliosarcoma [7]; intratumoral BCNU solution treated group, days 251-325", "result": 5, "unit": "%"}, {"measurement": "concentration of the formulation above the tumoricidal dose 50%", "setting": "tumor cells", "result": "about three to four"}, {"measurement": "ILS", "setting": "T9 gliosarcoma [8]; BCNU 5 mg/kg, delivered intra-arterially", "result": 57, "unit": "%"}, {"measurement": "improvement in life span", "setting": "T9 gliosarcoma [8]; BCNU 5 mg/kg, delivered systemically", "result": "no improvement in life span"}, {"measurement": "ILS", "setting": "T9 gliosarcoma [8]; BCNU 13.3 mg/kg, delivered intravenously or intra-arterially", "result": 180, "unit": "%"}, {"measurement": "cures in animals bearing this tumor, prior to this experiment", "setting": "T9 gliosarcoma [8]; any mode of delivery previously known", "result": "neither BCNU nor any other antineoplastic agent has ever produced cures in animals bearing this tumor; also recorded: neither BCNU nor any other single antineoplastic agent has ever been known to produce a single cure in this tumor model"}]}
{"molecule": "bleomycin", "values": [{"measurement": "organ specific toxicity", "setting": "[9]", "result": "lung toxicity"}]}
{"molecule": "COc1cccc2c1C(=O)c1c(O)c3c(c(O)c1C2=O)C[C@@](O)(C(=O)CO)C[C@@H]3O[C@H]1C[C@H](N)[C@H](O)[C@H](C)O1", "note": "[adriamycin]", "values": [{"measurement": "organ specific toxicity", "setting": "[9]", "result": "cardiotoxicity"}]}
{"molecule": "O=NN(CCCl)C(=O)NC1CCCCC1", "note": "[CCNU, 1-(2-chloroethyl)-3-cyclohexyl-1-nitrosourea]", "values": [{"measurement": "water solubility", "setting": "[2]", "result": "water insoluble"}, {"measurement": "increase in life span", "setting": "ependymoblastoma", "result": "only modest increases in life span"}]}
{"molecule": "C[C@H]1CC[C@H](NC(=O)N(CCCl)N=O)CC1", "note": "[Me-CCNU, 1-(2-chloroethyl)-3-(trans-4-methylcyclohexyl)-1-nitrosourea]", "values": [{"measurement": "water solubility", "setting": "[2]", "result": "water insoluble"}, {"measurement": "increase in life span", "setting": "ependymoblastoma", "result": "only modest increases in life span"}]}
